Results: paper PMC6483395 (Synlett : accounts and rapid communications in synthetic …, 2017)

Target: T1, NapH1 (Streptomyces sp. CNQ-525, UniProt A7KH27)
T1 sequence (A7KH27 42-527): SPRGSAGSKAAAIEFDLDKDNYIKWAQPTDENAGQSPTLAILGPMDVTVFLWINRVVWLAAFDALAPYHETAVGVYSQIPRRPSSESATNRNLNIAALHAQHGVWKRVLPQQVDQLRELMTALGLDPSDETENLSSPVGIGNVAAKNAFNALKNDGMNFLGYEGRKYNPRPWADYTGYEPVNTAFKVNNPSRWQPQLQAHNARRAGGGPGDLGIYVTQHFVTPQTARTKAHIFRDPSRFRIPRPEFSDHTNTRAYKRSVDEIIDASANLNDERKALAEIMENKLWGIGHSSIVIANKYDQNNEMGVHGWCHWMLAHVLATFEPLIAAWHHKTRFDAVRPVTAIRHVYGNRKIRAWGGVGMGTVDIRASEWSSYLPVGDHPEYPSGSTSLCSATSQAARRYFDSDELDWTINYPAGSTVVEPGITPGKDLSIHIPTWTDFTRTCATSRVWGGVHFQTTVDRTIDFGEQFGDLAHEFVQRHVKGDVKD
Experiment: crystal structure
Assay type: binding
Details: homodimer; structures with and without vanadate

## [O]=[V]([OH])([OH])[OH] [vanadate]
  crystal structure: we solved the three-dimensional structures of the homodimeric NapH1 with and without vanadate
